Reference: patent publication US9421204B2, “Oligomer modified diaromatic substituted compounds” (priority 2010, dated 2016)
Where two headings read alike, the source gives them in different places.

Columns and labels:
Wild Type RT = Wild Type RT (Human immunodeficiency virus type 1 group M subtype B, UniProt P04585); test: HIV-1 Reverse Transcriptase Inhibition Assay; type: biochemical
Method: The following materials were removed from the freezer and were stored on wet ice (dGTP, ^32P, purified enzyme extract, rCdG, dGTP, DNA). Test compounds were evaluated at a high test of 100 μM diluted in dH2O and if the stock solution was turbid, 1:1000 Triton-X was added to the stock solution. Thirty microliters (30 μL) of each dilution was then transferred in duplicate to the appropriate well of a 96-well plate. The positive and negative control wells each received 30 μL of dH2O instead of the compound. A 2× buffer was prepared in the following manner: 125 μL 2M Tris pH 8.0, 250 μL 3M KCl, 80 μL 1 M MgC12, 10 μL 2 M DTT, 40 μL 25 U/mL rCdG, 100 μL 1 mM dGTP, 10 μL 800 Ci/mMol alpha ^32P:dG TP, and 4.4 mL dH2O. Fifty microliters (50 μL) of 2× buffer was added to every well of the plate. BSA was diluted 1:100 and Triton-X 1:1000 in dH2O and the enzyme was added to the mixture at a 1:400 dilution. Twenty microliters (20 μL) of the enzyme solution was added to all of the wells of the plate except the negative control wells. Distilled water was used instead of enzyme in these wells. The plate was incubated at 37° C. for 30 minutes. Following incubation, 10 μL of 10 mg/mL DNA (MB-grade fish sperm) was added to each well, followed by 150 μL of cold 10% TCA in each well. The plate was incubated at room temperature for approximately 15 minutes in order to allow for precipitation of the samples. Following the incubation the contents were transferred to the appropriate filter plate. The plate was placed on the vacuum manifold and pushed firmly to induce suction. Wells were rinsed with 200 μL of cold TCA. Again, the plate was pushed down firmly and vacuum suction was applied. Once all of the liquid was aspirated from the filter plate, it was removed from the manifold and residual liquid was blotted from the bottom of the plastic base. The filtered wells were separated from the plastic base and the wells were blotted on clean, absorbent paper. The filtered wells were pushed into the cassette and a sheet of Millipore multiscreen tape was placed on the bottom of a Wallace Microbeta cassette covering all of the holes. Twenty microliters (20 μL) of Wallace Supermix Scintillant was added to each well and the top of the wells were covered with a sheet of the multiscreen tape. The plate was read on the Wallace MicroBeta counter to measure incorporated ^32P.

[1] = Toxicity XTT in CEM-SS cells (cytoprotection assay); type: cell-based; conditions: human, CEM-SS cells, XTT; read-out: CEM-SS TC50
Procedure, shortened: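 CEM-SS cells in exponential growth (>95% viable) were plated with compound alone, as eleven half-log dilutions in triplicate, at 37 °C and 5% CO2. Viability was measured by XTT/PMS metabolism over 4 h, read at 450/650 nm. Toxicity was derived by four-parameter curve fitting.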

[2] = Log P determination (Sirius GLpKa); type: physicochemical; conditions: Partition Log P, 25° C.; for logP: read-out: Log P
Method: The Sirius GLpKa instrument is used to determine the pKa and Log P. A blank standardization has to be completed first and passed in order to conduct the compound experiments. The solutions used by the instrument for the blank titration include water, a pH solution, and a surfactant (TRITON X-100). The TRITON X-100 was purchased commercially from Sirus. The 0.5% solution of TRITON X-100 was used in the experiment. In a 1 L volumetric flask 5 mls of TRITON X-100 is added and MILLI Q water to volume. The vessels used by the instrument were filled to ⅓ of their volume with each solution. Therefore the assay tray contains one vessel for water, pH solution, and surfactant for the blank run. The temperature of the water bath for the instrument is 25° C. The blank is calculated as an average of three “good” experiments. The “good” was denoted by a green check mark next to the assay number in the computer software. Once the blank was run successfully the instrument was ready to conduct the experiments. An additional method has to be set up for the Log P determinations for each compound. The conjugates are weighed into vessels in the same manner as for the previous experiment, i.e., 10% of the molecular weight. The vessels are placed in the assay tray of the instrument. The experimental parameters are entered into the computer. These included sample weight, molecular weight, assay type (Partition Log P), number of assays (three), and pKa value of the parent drug from the previous experiment. The run was started. There are three measurements for each run that are averaged to obtain the final results from the data points collected in the calculation software. All runs were denoted as “good” by the green check mark next to the assay number.

Molecule	IC50 (Wild Type RT; Wild Type RT IC50) [nM]	CC50 [1] [nM]	logP [2]	Log P [2]	IC50 (Wild Type RT; read-out: Wild Type RT IC50) [nM]
COCCNc1ccc2[nH]c(C(=O)N3CCN(c4ncccc4NC(C)C)CC3)cc2c1 [5-mPEG1-NH-Delavirdine, 5-mPEG-NH-Delavirdine]	250	50900	–	–	–
COCCOCCOCCOCCOCCOCCOc1ccc2[nH]c(C(=O)N3CCN(c4ncccc4NC(C)C)CC3)cc2c1 [mPEG6-O-Delavirdine, 5-O-mPEG6-Delavirdine]	290	22500	2.65	–	–
COCCOCCOCCOc1ccc2[nH]c(C(=O)N3CCN(c4ncccc4NC(C)C)CC3)cc2c1 [mPEG3-O-Delavirdine, 5-O-mPEG3-Delavirdine]	50	26900	1.98	–	–
COCCOCCOCCOCCOCCOCCOCCOCCOc1ccc2[nH]c(C(=O)N3CCN(c4ncccc4NC(C)C)CC3)cc2c1 [mPEG8-O-Delavirdine, 5-O-mPEG8-Delavirdine]	490	52500	2.58	–	–
COCCOCCNc1ccc2[nH]c(C(=O)N3CCN(c4ncccc4NC(C)C)CC3)cc2c1 [5-mPEG2-NH-Delavirdine]	580	55500	–	–	–
COCCOCCOCCOCCOc1ccc2[nH]c(C(=O)N3CCN(c4ncccc4NC(C)C)CC3)cc2c1 [mPEG4-O-Delavirdine, 5-O-mPEG4-Delavirdine]	280	34000	2.22	–	–
COCCOCCOCCOCCOCCOc1ccc2[nH]c(C(=O)N3CCN(c4ncccc4NC(C)C)CC3)cc2c1 [mPEG5-O-Delavirdine, 5-O-mPEG5-Delavirdine]	130	14400	–	–	–
5-O-mPEG9-Delavirdine [mPEG9-O-Delavirdine]	–	–	–	2.328	560
COCCOCCOCCOCCOCCOCCOCCOc1ccc2[nH]c(C(=O)N3CCN(c4ncccc4NC(C)C)CC3)cc2c1 [mPEG7-O-Delavirdine, 5-O-mPEG7-Delavirdine]	700	35500	2.73	–	–
